Converted amounts (≈) assume the structure as drawn. “Also recorded” adds a separate entry of the source.
How the values were obtained:
BHK-21 cells = test: Cell viability; type: cell-based, baby hamster; settings: 72 h, MTT
[1] = system: GAS-driven promoter (pGAS-Luc) in BHK-21 cells; test: GAS-driven promoter dual-luciferase reporter assay; type: cell-based, baby hamster; settings: 10 μg/ml, 4 h, versus untreated cells
[2] = system: Japanese encephalitis virus (JEV) strain T1P1; test: JEV plaque reduction assay in BHK-21 cells; type: cell-based; settings: JEV 100 pfu, BHK-21 monolayer, plaques after 3 days
Cell viability = type: cell-based, baby hamster; settings: hamster, BHK-21 cells, CC50, BHK-21 cells, MTT
[3] = system: Japanese encephalitis virus (JEV); test: Quantitative assay of JEV yields by real-time RT-PCR; type: cell-based; settings: for Ct (real-time RT-PCR of JEV RNA in supernatant) / ΔCt (Ct experimental − Ct control) / Reduction in virus RNA loads: 10 μg/ml; for Ct (real-time RT-PCR of JEV RNA in supernatant) / ΔCt (Ct experimental − Ct control): JEV MOI 1, BHK-21 cells, 72 h; for Reduction in virus RNA loads: supernatant of infected BHK-21 cells, three days post infection; for inhibition at 10 µg/mL: Japanese encephalitis virus, BHK-21, read-out: Inhibition of JEV yields

| Structure (SMILES) | CC50 (BHK-21 cells) [µg/mL] | Activity of GAS-driven promoter (relative firefly luciferase) [1] | IC50 (JEV plaque reduction) [2] [µg/mL] | CC50 at 72 h (Cell viability) [µg/mL] | Ct (real-time RT-PCR of JEV RNA in supernatant) [3] | ΔCt (Ct experimental − Ct control) [3] | Reduction in virus RNA loads [3] | inhibition at 10 µg/mL [3] [%] | Activity of GAS-driven promoter (relative firefly luciferase) ([1]; listed as aloe emodin) | Activity of GAS-driven promoter (relative firefly luciferase) ([1]; listed as aloe-emodin) |
| --- | --- | --- | --- | --- | --- | --- | --- | --- | --- | --- |
| Cc1cc(O)c2c(c1)C(=O)c1cc(O)cc(O)c1C2=O [Emodin] | 5.49 ± 1.82 (≈ 20.3 µM) |  |  |  |  |  |  |  |  |  |
| Cc1cc(O)c2c(c1)C(=O)c1cccc(O)c1C2=O [Chrysophanol] |  | significantly activated; also recorded: significantly increased | 15.82 ± 2.62 (≈ 62.2 µM) | 18.2 ± 5.53 (≈ 71.5 µM) | 29.26 | 3.73 | more than 1 log | 90 |  |  |
| O=C1c2cccc(O)c2C(=O)c2c(O)cc(CO)cc21 [Aloe-emodin] |  |  | 17.39 ± 0.58 (≈ 64.4 µM) | 20.2 ± 1.01 (≈ 74.7 µM) | 32.25 | 6.72 | more than 1 log | 90 | significantly activated | significantly increased |
| COc1cc(O)c2c(c1)C(=O)c1cc(C)cc(O)c1C2=O [Physcion] |  |  |  | 20.7 ± 4.66 (≈ 72.8 µM) |  |  |  |  |  |  |
